Measurements from US7534892B2, “Sulfonamide compound” (Shionogi & Co., Ltd., priority 2004, dated 2009).
Where two headings read alike, the source gives them in different places.

Test system: food intake of rats
Assay: Antifeeding activity: food intake after intracerebroventricular infusion of NPYY5 agonist
Type: in vivo
Settings: Rattus norvegicus, compound 30 mg/kg oral, 0.1 nmol NPYY5 agonist infused one hour later
Procedure: A guide cannula was implanted in ventriculus lateralis of 7-week-old rats (200-300 g) reared in free-feeding. Then the rats reared in free-feeding about for 1 week.
A compound of the present invention was suspended in 0.5% HPMC solution (hydroxypropylmethylcellulose: 60SH-50, Shin-Etsu Chemical Co., Ltd.) to get a final concentration of 15 mg/ml.
Rats were given 2 mL/kg of a suspension of a compound of the present invention (the compound 30 mg/kg) by oral administration. On the other hand, rats in a control group were given the same amount of 0.5% HPMC by oral administration.
NPYY5 agonist ([cPP^1-7, NPY^19-23, Ala^31, Aib^32, Gln^34]-hPancreatic Polypeptide: Tocris Coockson) was dissolved in a physiological salt solution to be 0.1 nmol/10 μL. 0.1 nmol of the solution was infused via a guide cannula in a head of the rat one hour after giving a compound of the present invention. Immediately after the infusion, the amount of the remaining food was measured.
The amount of the remaining food was measured 1, 2 or 4 hour(s) after the infusion of an agonist and the food intake for this period was calculated. An antifeeding rate of a compound of the present invention against the food intake of rats in a control group was calculated.

[1] = food intake 1 h after infusion vs control group, read-out: Antifeeding activity (%) 1 h
[2] = food intake 2 h after infusion vs control group, read-out: Antifeeding activity (%) 2 h
[3] = food intake 4 h after infusion vs control group, read-out: Antifeeding activity (%) 4 h

| Structure (SMILES) | inhibition in vivo at 30 mg/kg [1] [%] | inhibition in vivo at 30 mg/kg [2] [%] | inhibition in vivo at 30 mg/kg [3] [%] |
| --- | --- | --- | --- |
| CCS(=O)(=O)NCCCCC(=O)Nc1ccc(OCC(F)(F)F)nc1 [Ia-3] | 85 | 78 | 74 |
| CCS(=O)(=O)N[C@H]1CC[C@H](C(=O)Nc2ccc(OCC(F)(F)F)nc2)CC1 [Ia-2] | 98 | 77 | 56 |
| CCS(=O)(=O)N[C@H]1CC[C@H](C(=O)Nc2ccc(N3C[C@@H](C)O[C@@H](C)C3)cc2)CC1 [Ib-1] | 90 | 95 | 92 |
| CCn1c2ccccc2c2cc(NC(=O)CCNS(=O)(=O)CC(F)(F)F)ccc21 [Ig-1] | 67 | 44 | 48 |
| CCn1c2ccccc2c2cc(NC(=O)[C@H]3CC[C@H](NS(=O)(=O)CC)CC3)ccc21 [Id-1] | 5 | 37 | 49 |
| CCS(=O)(=O)NCCCCC(=O)Nc1ccc2c(c1)c1c(n2C(C)C)CCCC1 [Id-4] | 100 | 94 | 95 |
| CCn1c2ccccc2c2cc(NC(=O)CCCCNS(=O)(=O)CC)ccc21 [Id-2] | 100 | 100 | 100 |
| CN(C)S(=O)(=O)N[C@H]1CC[C@H](C(=O)Nc2ccc(C(F)(F)F)cc2)CC1 [Ii-1] | 42 | 38 | 31 |
